According to paper PMC11587516 (ACS Chemical Neuroscience, 2024):

System: SH-SY5Y neuroblastoma cells
Assay: SH-SY5Y viability, MTS assay, 72 h
Type: cell-based, human
Settings: 0.1-100 µM
From the text: OC(=O)[C@H]1CNCC[C@@H]1S OC(=O)CCCCCCN1C=CN=C1
OC(=O)C1CCNCC1 N[C@]12C[C@H]1[C@@H](CC2)C(O)=O
OC(=O)C1=CCNCC1 N[C@H]1C[C@@H]1CC(O)=O
O[C@@H]1CNCC[C@H]1C(O)=O N[C@@H]1C[C@@H]1CC(O)=O
OC(=O)CCCC1=NC=CN1 N[C@H]1C[C@H]1CC(O)=O
OC(=O)\C=C\C1=NC=CN1 NC[C@H]1C[C@H]1C(O)=O
OC(=O)\C=C\C1=CNC=N1 NC[C@@H]1C[C@@H]1C(O)=O
OC(=O)\C=C\C1=CN=CN1 NC[C@@H]1C[C@H]1C(O)=O
OC(=O)CCC1=CNC=N1 NC[C@H]1C[C@@H]1C(O)=O
OC(=O)CCC1=CN=CN1 NC1=CC=C(C=N1)C(O)=O
OC(=O)CCN1C=CN=C1 NC1=NC=C(C=N1)C(O)=O
OC(=O)CCCC1=NC=CN1 NC(=N)N1CCC(CC1)C(O)=O
S2. IC50 determination at GAT3 stable GAT3-CHO, compound 9
Figure S1. IC 50 determination for compound 9. Data represent one of three independent experiments, each performed in three technical replicates.
S3. […]
The influence of compound 9 on viability of SH-SY5Y neuroblastoma cells was determined using Aqueous Non-Radioactive Cell Proliferation Assay. […] Upon adding MTS and following 2h incubation, cell viability was calculated and […]
The effect of compound 9 on viability and proliferation of SH-SY5Y was determined with CellTiter 96® Aqueous Non-Radioactive Cell Proliferation Assay (MTS, Promega, Madison, WI, USA). […] Next MTS was added in fresh medium and after 2h of incubation the absorbance was measured at 490 nm using a microplate reader EnSpire (PerkinElmer, Waltham, MA USA). All results were shown as mean ± SD calculated from two independent experiments. […]

NC12CC(C(=O)O)(C1)C2 [Compound 9]
impact on SH-SY5Y viability: no impact
